Series [1] relates to RAW264.7. In words: Cytotoxicity against mouse RAW264.7 cells assessed as reduction in cell viability by MTT assay. It counts as cell-based. (In general: Tetrazolium assays rely on reduction of a dye to a coloured formazan, in cell work by metabolically active cells.)
Series [2] deals with RAW264.7. Description: Antiinflammatory activity in mouse RAW264.7 cells assessed as inhibition of LPS-induced NO production incubated for 24 hrs by Griess method. It counts as functional, cell-based. The conditions noted are these: RAW264.7, 24 h. Background: Nitrite, measured by Griess reagent, commonly stands in for NO production.

The structures appear in SMILES notation.

As for `CC(=O)O[C@H]1C(C)=C[C@]23C(=O)[C@@H](C=C(CO)[C@@H](OC(=O)c4ccccc4)[C@]12O)[C@H]1[C@@H](C[C@H]3C)C1(C)C`, the Activity result in the series on RAW264.7 [1] is “Non-toxic”. In the series with RAW264.7 [2], the IC50 was determined as 29.5 µM. As for `CCCCC/C=C/C=C/C(=O)O[C@@H]1C(COC(C)=O)=C[C@@H]2C(=O)[C@]3(C=C(C)[C@H](O)[C@@]13O)[C@H](C)C[C@@H]1[C@H]2C1(C)C`, the Activity entry in the series on RAW264.7 [1] was “Non-toxic”. Also, the IC50 in the series on RAW264.7 [2] was found to be 7.6 µM. Take `C=C1[C@@H](OC(C)=O)[C@@H](OC(=O)c2ccccc2)[C@@H](OC(C)=O)C(C)(C)[C@H]2O[C@](O)([C@H](C)C2=O)[C@@]2(OC(C)=O)C[C@@](C)(O)[C@H](OC(C)=O)[C@@H]2[C@H]1OC(C)=O`: the Activity result in the series on RAW264.7 [1] is recorded as “Non-toxic”. In the series on RAW264.7 [2], the IC50 is 50.2 µM.

As for `CC1=C[C@]23C(=O)[C@@H](C=C(CO)[C@@H](O)[C@]2(O)[C@H]1O)[C@H]1[C@@H](C[C@H]3C)C1(C)C` [INGENOL], the Activity entry in the series on RAW264.7 [1] is recorded as “Non-toxic”. Moreover, the concentration for half-maximal inhibition (IC50) in the series with RAW264.7 [2] is above 100 µM. On to `C=C1[C@H](OC(C)=O)[C@@H](OC(=O)c2ccccc2)[C@H](OC(=O)c2cccnc2)C(C)(C)[C@H]2O[C@@H]2[C@@H](C)C(=O)[C@@]2(OC(C)=O)C[C@H](C)[C@H](OC(C)=O)[C@@H]2[C@H]1OC(C)=O`, for which the Activity result with RAW264.7 [1] was “Non-toxic”. The IC50 in the series on RAW264.7 [2] was 6.3 µM. Taken in the same sequence, the figures for `C=C1[C@@H](OC(C)=O)[C@@H](OC(=O)c2ccccc2)[C@@H](OC(=O)c2cccnc2)C(C)(C)[C@H]2O[C@](O)([C@H](C)C2=O)[C@@]2(OC(C)=O)C[C@H](C)[C@H](OC(C)=O)[C@@H]2[C@H]1OC(C)=O` were “Non-toxic” and 22.1 µM. With `CCCCC/C=C\C=C\C(=O)O[C@@H]1C(COC(C)=O)=C[C@@H]2C(=O)[C@]3(C=C(C)[C@H](O)[C@@]13O)[C@H](C)C[C@@H]1[C@H]2C1(C)C`, the Activity result in the series on RAW264.7 [1] is reported as “Non-toxic”. Also, the IC50 in the series with RAW264.7 [2] stood at 10.1 µM.

Take `CCCCC/C=C\C=C\C(=O)O[C@H]1C(C)=C[C@]23C(=O)[C@@H](C=C(C)[C@@H](O)[C@]12O)[C@H]1[C@@H](C[C@H]3C)C1(C)C`: in the series on RAW264.7 [1], the Activity result was “Non-toxic”. Also, in the series on RAW264.7 [2], the IC50 was found to be 14.1 µM. Taken in the same sequence, the figures for `C=C1[C@H](OC(=O)c2ccccc2)[C@H]2[C@@H](OC(C)=O)[C@](C)(O)[C@@H](O)[C@]2(OC(C)=O)C(=O)[C@@H](C)/C=C/C(C)(C)C(=O)[C@H](O)[C@H]1OC(=O)c1ccccc1` were “Non-toxic” and 46.5 µM.

On to `C=C1[C@H](OC(=O)c2ccccc2)[C@H]2[C@@H](OC(C)=O)[C@](C)(O)[C@@H](OC(C)=O)[C@]2(O)C(=O)[C@@H](C)/C=C/C(C)(C)C(=O)[C@H](OC(C)=O)[C@H]1OC(=O)c1ccccc1`, for which the Activity entry with RAW264.7 [1] is recorded as “Non-toxic”. The IC50 in the series with RAW264.7 [2] was 16.4 µM.

In the case of `CC(=O)OCC1=C[C@@H]2C(=O)[C@]3(C=C(C)[C@H](O)[C@@]3(O)[C@@H]1O)[C@H](C)C[C@@H]1[C@H]2C1(C)C`, the Activity entry with RAW264.7 [1] is “Non-toxic”. For the same compound, the IC50 with RAW264.7 [2] was above 100 µM. For the compound `CCCCC/C=C\C=C\C(=O)O[C@H]1C(C)=C[C@]23C(=O)[C@@H](C=C(COC(C)=O)[C@@H](O)[C@]12O)[C@H]1[C@@H](C[C@H]3C)C1(C)C`, the Activity entry with RAW264.7 [1] is on record as “Non-toxic”. The IC50 in the series on RAW264.7 [2] was found to be 5.1 µM. Regarding `C=C1[C@@H](OC(C)=O)[C@@H](OC(=O)c2ccccc2)[C@@H](OC(C)=O)C(C)(C)[C@H]2O[C@](O)([C@H](C)C2=O)[C@@]2(OC(C)=O)C[C@H](C)[C@H](OC(C)=O)[C@@H]2[C@H]1OC(C)=O`, the Activity result in the series on RAW264.7 [1] is recorded as “Non-toxic”. In addition, the IC50 in the series on RAW264.7 [2] was found to be 2.9 µM. Take `CC1=C[C@@H]2C(=O)[C@]3(C=C(C)[C@H](OC(=O)c4ccccc4)[C@@]3(O)[C@@H]1O)[C@H](C)C[C@@H]1[C@H]2C1(C)C`: in the series with RAW264.7 [1], the Activity result is on record as “Non-toxic”. The IC50 in the series on RAW264.7 [2] came out at 16 µM. For `N=C(N)NN` [PIMAGEDINE], the IC50 in the series on RAW264.7 [2] worked out at 18.7 µM. Regarding `CCCCC/C=C/C=C/C(=O)O[C@H]1C(C)=C[C@]23C(=O)[C@@H](C=C(COC(C)=O)[C@@H](O)[C@]12O)[C@H]1[C@@H](C[C@H]3C)C1(C)C`, in the series on RAW264.7 [1], the Activity entry is “Non-toxic”. Also, the IC50 in the series on RAW264.7 [2] amounted to 0.7 µM. Consider `CC1=C[C@@H]2C(=O)[C@]3(C=C(C)[C@H](O)[C@@]3(O)[C@@H]1OC(=O)c1ccccc1)[C@H](C)C[C@@H]1[C@H]2C1(C)C`, for which the Activity entry in the series on RAW264.7 [1] is on record as “Non-toxic”. Besides, in the series on RAW264.7 [2], the concentration for half-maximal inhibition (IC50) came to 3.1 µM.

In general, IC50 refers to the concentration that gives 50% inhibition.

These data come from ChEMBL document CHEMBL3813605, “Jatrophane and ingenane-type diterpenoids from Euphorbia kansui inhibit the LPS-induced NO production in RAW 264.7 cells” (Bioorg Med Chem Lett, 2016).
